Laboratory results: patent US20120040916A1, “MOLECULAR INHIBITORS OF THE WNT/BETA-CATENIN PATHWAY” (MASSACHUSETTS INSTITUTE OF TECHNOLOGY, priority 2008, published 2012)

Legend:
[1] = system: nuclear β-catenin in B16 cells; experiment: Immunofluorescent staining of β-catenin in B16 cells; assay type: cell-based, murine
Method: A polyclonal rabbit anti-β-catenin antibody was used for detection of β-catenin (1:1000 dilution for immunoblot, 1:200 dilution for immunohistochemistry). Cells were grown on 18 mm glass coverslips, for 48-72 hours, fixed using 4% paraformaldehyde, permeabilized using 0.25% Triton X-100, and then blocked with 10% goat serum. Goat anti-rabbit Alexa Fluor-568 antibody (Molecular Probes; Eugene, Oreg.) was diluted 1:1000. Cells were counterstained for nucleic acid with DAPI (Molecular Probes; Eugene, Oreg.). Paraffin-embedded nevus sections were stained using an antibody dilution of 1:200. Cellular lysates were obtained by lysing cells on plate with a 0.1% NP-40 based buffer and analyzed by NuPage 4-12% gradient gels (Invitrogen; Grand Island, N.Y.). The WNT5A antibody was obtained from Cell Signaling Technologies (Danvers, Mass.).

B16 melanoma cells = experiment: MTT proliferation assay of B16 melanoma cells; assay type: cell-based, murine
[2] = system: human melanoma cell lines; experiment: Proliferation of human melanoma cell lines (hematocytometer or MTT assay); assay type: cell-based; settings: 10 mM lithium chloride, 3-7 days, FIG. 4D
[3] = system: Wnt/β-catenin pathway (Axin2) in B16 cells; experiment: Quantitative PCR of Axin2 in B16 cells; assay type: cell-based, murine
Method: Cells were cultured for approximately 72 hours until they reached 80-90% confluency. RNA was purified using the RNeasy kit using the manufacturer's protocol (Qiagen; Maryland, MD). cDNA was synthesized using Superscript Reverse Transcriptase (Invitrogen; Grand Island, N.Y.). Light Cycler FastStart DNA Master SYBR Green1 (Roche; Mannheim, Germany) was used for real-time PCR as previously described (Major et al., Science 316:1043 (2007), which is hereby incorporated by reference in its entirety). Quantitative PCR results presented in the manuscript are representative of experiments performed on a minimum of three biologic replicates.

SMILES	Nuclear β-catenin by immunofluorescent staining ([1]; 10 mM lithium chloride vs 10 mM sodium chloride, FIG. 5A)	Proliferation by MTT assay (B16 melanoma cells; 10 mM lithium chloride vs control cells, FIG. 5E)	Proliferation, normalized to growth in 10 mM sodium chloride [2]	Axin2 levels by quantitative PCR ([3]; 10 mM lithium chloride vs control cells, FIG. 5C)	Nuclear β-catenin by immunofluorescent staining ([1]; 1 μM BIO vs DMSO, FIG. 5B)	Proliferation by MTT assay (B16 melanoma cells; 1 μM BIO vs control cells, FIG. 5F)	Axin2 levels by quantitative PCR ([3]; 1 μM BIO vs control cells, FIG. 5D)
[Cl-].[Li+] [lithium chloride]	increased nuclear β-catenin	decreased proliferation	inhibited proliferation in all human melanoma cell lines tested	increased Axing levels	–	–	–
O=C1Nc2cc(Br)ccc2/C1=C1/Nc2ccccc2/C1=N\O [BIO]	–	–	–	–	increased nuclear β-catenin	decreased proliferation	increased Axing levels
